Measurements taken from US20090264415A2 (priority 2004, published 2009).

system: peripheral blood mononuclear cells (PBMC) stimulated with allogeneic PBMC or EBV-transformed human B cells (RPMI1788); experiment: Mixed lymphocyte reaction (MLR) assay; format: cell-based; conditions: Homo sapiens, RPMI-1788; MLR assay of example 319; read-out: MLR IC50
Protocol: Pyrido[3,2-d]pyrimidine derivatives were first dissolved (10 mM) in dimethyl-sulfoxide (hereinafter referred as DMSO) and further diluted in culture medium before use for the following in vitro experiments. […] Some pyrido[3,2-d]pyrimidine derivatives described herein were tested in the following mixed lymphocyte reaction (MLR) assay.
Peripheral blood mononuclear cells (hereinafter referred as PBMC) were isolated from heparinized peripheral blood by density gradient centrifugation over Lymphoprep (Nycomed, Maorstua, Norway). Allogeneic PBMC or Eppstein-Barr Virus-transformed human B cells [commercially available under the trade name RPM11788 (ATCC name CCL156)] which strongly express B7-1 and B7-2 antigens were used as stimulator cells after irradiation with 30 Gy. MLR was performed in triplicate wells. After 5 days incubation at 37° C., 1 μCi [^3H]-thymidine was added to each cup. After a further 16 hours incubation, cells were harvested and counted in a β-counter. Inhibition of proliferation by a compound described in some of the present examples was counted while using the formula: [formula] wherein cpm is the thymidine count per minute. The MLR assay is regarded by those skilled in the art as an in vitro analogue of the transplant rejection since it is based on the recognition of allogeneic major histocompatibility antigens on the stimulator leukocytes, by responding lymphocytes.

Row | SMILES | IC50 [µM]
1 | Nc1nc(N2CCN(C(=O)COc3ccc(Cl)cc3)CC2)c2nc(-c3ccc(C(F)(F)F)cc3)ccc2n1 [Example 399, 2-amino-4-[4-(4-chlorophenoxyacetyl)piperazin-1-yl]-6-(4-trifluoromethylphenyl)-pyrido[3,2-d]pyrimidine] | 0.5
2 | N#Cc1ccc(-c2ccc3nc(N)nc(N4CCN(C(=O)COc5ccc(Cl)cc5)CC4)c3n2)cc1 [Example 400, 2-amino-4-[4-(4-chlorophenoxyacetyl)piperazin-1-yl]-6-(4-cyanophenyl)pyrido-[3,2-d]pyrimidine] | 0.05
3 | Nc1nc(N2CCN(C(=O)COc3ccc(Cl)cc3)CC2)c2nc(-c3cccc(F)c3)ccc2n1 [Example 401, 2-amino-4-[4-(4-chlorophenoxyacetyl)piperazin-1-yl]-6-(3-fluorophenyl)pyrido-[3,2-d]pyrimidine] | 0.3
4 | Nc1nc(N2CCN(C(=O)COc3ccc(Cl)cc3)CC2)c2nc(-c3ccoc3)ccc2n1 [Example 402, 2-amino-4-[4-(4-chlorophenoxyacetyl)piperazin-1-yl]-6-(furan-3-yl)pyrido-[3,2-d]pyrimidine] | 0.03
5 | Nc1nc(N2CCN(C(=O)COc3ccc(Cl)cc3)CC2)c2nc(-c3ccsc3)ccc2n1 [Example 403, 2-amino-4-[4-(4-chlorophenoxyacetyl)piperazin-1-yl]-6-(thiophen-3-yl)pyrido-[3,2-d]pyrimidine] | 0.04
6 | Nc1nc(N2CCN(C(=O)COc3ccc(Cl)cc3)CC2)c2nc(-c3ccc(F)c(F)c3)ccc2n1 [Example 404, 2-amino-4-[4-(4-chlorophenoxyacetyl)piperazin-1-yl]-6-(3,4-difluorophenyl)pyrido-[3,2-d]pyrimidine] | 0.04
7 | Nc1nc(N2CCN(C(=O)COc3ccc(Cl)cc3)CC2)c2nc(-c3ccc(Cl)cc3)ccc2n1 [Example 405, 2-amino-4-[4-(4-chlorophenoxyacetyl)piperazin-1-yl]-6-(4-chlorophenyl)pyrido-[3,2-d]pyrimidine] | 0.05
8 | Nc1nc(N2CCN(C(=O)COc3ccc(Cl)cc3)CC2)c2nc(-c3cccc(Cl)c3)ccc2n1 [Example 406, 2-amino-4-[4-(4-chlorophenoxyacetyl)piperazin-1-yl]-6-(3-chlorophenyl)pyrido-[3,2-d]pyrimidine] | 0.07
9 | Nc1nc(N2CCN(C(=O)COc3ccc(Cl)cc3)CC2)c2nc(-c3ccncc3)ccc2n1 [Example 407, 2-amino-4-[4-(4-chlorophenoxyacetyl)piperazin-1-yl]-6-(pyridin-4-yl)pyrido-[3,2-d]pyrimidine] | 0.005
10 | Nc1nc(N2CCN(C(=O)COc3ccc(Cl)cc3)CC2)c2nc(-c3ccc(F)c(Cl)c3)ccc2n1 [Example 408, 2-amino-4-[4-(4-chlorophenoxyacetyl)piperazin-1-yl]-6-(3-chloro-4-fluorophenyl)-pyrido-[3,2-d]pyrimidine] | 0.2
11 | Nc1nc(N2CCN(C(=O)COc3ccc(Cl)cc3)CC2)c2nc(-c3cccnc3)ccc2n1 [Example 409, 2-amino-4-[4-(4-chlorophenoxyacetyl)piperazin-1-yl]-6-(pyridin-3-yl)pyrido-[3,2-d]pyrimidine] | 0.005
12 | COc1ccc(-c2ccc3nc(N)nc(N4CCN(C(=O)COc5ccc(Cl)cc5)CC4)c3n2)cn1 [Example 410, 2-amino-4-[4-(4-chlorophenoxyacetyl)piperazin-1-yl]-6-(2-methoxypyridin-5-yl)pyrido-[3,2-d]pyrimidine] | 0.009
13 | Cc1noc(C)c1-c1ccc2nc(N)nc(N3CCN(C(=O)COc4ccc(Cl)cc4)CC3)c2n1 [Example 411, 2-amino-4-[4-(4-chlorophenoxyacetyl)piperazin-1-yl]-6-(3,5-dimethylisoxazol-4-yl)pyrido-[3,2-d]pyrimidine] | 0.034
14 | Nc1nc(N2CCN(C(=O)COc3ccc(Cl)cc3)CC2)c2nc(-c3ccc4[nH]ccc4c3)ccc2n1 [Example 412, 2-amino-4-[4-(4-chlorophenoxyacetyl)piperazin-1-yl]-6-(indol-5-yl)pyrido-[3,2-d]pyrimidine] | 0.039
15 | Nc1nc(N2CCN(C(=O)COc3ccc(Cl)cc3)CC2)c2nc(-c3ccc(C(=O)O)s3)ccc2n1 [Example 413, 2-amino-4-[4-(4-chlorophenoxyacetyl)piperazin-1-yl]-6-(2-carboxythiophen-5-yl)pyrido-[3,2-d]pyrimidine] | > 10
16 | N#Cc1cccc(-c2ccc3nc(N)nc(N4CCN(C(=O)COc5ccc(Cl)cc5)CC4)c3n2)c1 [Example 414, 2-amino-4-[4-(4-chlorophenoxyacetyl)piperazin-1-yl]-6-(3-cyanophenyl)pyrido-[3,2-d]pyrimidine] | 0.02
17 | Nc1nc(N2CCN(C(=O)COc3ccc(Cl)cc3)CC2)c2nc(-c3ccc(O)cc3)ccc2n1 [Example 415, 2-amino-4-[4-(4-chlorophenoxyacetyl)piperazin-1-yl]-6-(4-hydroxyphenyl)pyrido-[3,2-d]pyrimidine] | 0.006
18 | N#Cc1ccccc1-c1ccc2nc(N)nc(N3CCN(C(=O)COc4ccc(Cl)cc4)CC3)c2n1 [Example 416, 2-amino-4-[4-(4-chlorophenoxyacetyl)piperazin-1-yl]-6-(2-cyanophenyl)pyrido-[3,2-d]pyrimidine] | 0.012
19 | CS(=O)(=O)c1ccc(-c2ccc3nc(N)nc(N4CCN(C(=O)COc5ccc(Cl)cc5)CC4)c3n2)cc1 [Example 417, 2-amino-4-[4-(4-chlorophenoxyacetyl)piperazin-1-yl]-6-(4-(methanesulfonyl)-phenyl)pyrido-[3,2-d]pyrimidine] | 0.028
20 | COc1cccc(-c2ccc3nc(N)nc(N4CCN(C(=O)COc5ccc(Cl)cc5)CC4)c3n2)c1 [Example 418, 2-amino-4-[4-(4-chlorophenoxyacetyl)piperazin-1-yl]-6-(3-methoxyphenyl)pyrido-[3,2-d]pyrimidine] | 0.057
21 | Nc1cccc(-c2ccc3nc(N)nc(N4CCN(C(=O)COc5ccc(Cl)cc5)CC4)c3n2)c1 [Example 419, 2-amino-4-[4-(4-chlorophenoxyacetyl)piperazin-1-yl]-6-(3-aminophenyl)pyrido-[3,2-d]pyrimidine] | 0.02
22 | Cc1cc(-c2ccc3nc(N)nc(N4CCN(C(=O)COc5ccc(Cl)cc5)CC4)c3n2)ccc1F [Example 420, 2-amino-4-[4-(4-chlorophenoxyacetyl)piperazin-1-yl]-6-(4-fluoro-3-methylphenyl)-pyrido-[3,2-d]pyrimidine] | 0.3
23 | Nc1nc(N2CCN(C(=O)COc3ccc(Cl)cc3)CC2)c2nc(-c3ccccc3)ccc2n1 [Example 421, 2-amino-4-[4-(4-chlorophenoxyacetyl)piperazin-1-yl]-6-phenylpyrido-[3,2-d]pyrimidine] | 0.049
24 | COc1ccccc1-c1ccc2nc(N)nc(N3CCN(C(=O)COc4ccc(Cl)cc4)CC3)c2n1 [Example 422, 2-amino-4-[4-(4-chlorophenoxyacetyl)piperazin-1-yl]-6-(2-methoxyphenyl)pyrido-[3,2-d]pyrimidine] | 0.1
25 | Nc1nc(N2CCN(C(=O)COc3ccc(Cl)cc3)CC2)c2nc(-c3ccc(F)cc3F)ccc2n1 [Example 423, 2-amino-4-[4-(4-chlorophenoxyacetyl)piperazin-1-yl]-6-(2,4-difluorophenzyl)pyrido-[3,2-d]pyrimidine] | 0.1
26 | Nc1nc(N2CCN(C(=O)COc3ccc(Cl)cc3)CC2)c2nc(-c3ccccc3F)ccc2n1 [Example 424, 2-amino-4-[4-(4-chlorophenoxyacetyl)piperazin-1-yl]-6-(2-fluorophenyl)pyrido-[3,2-d]pyrimidine] | 0.11
